“And” between values parts separate entries of the source, which are not always exact repeats. Identical values can stand only once.
What follows are compounds tested against T1, FPRL-1 (Homo sapiens, UniProt P25090) (assay: FPRL-1 Ga16-CHO compound-induced calcium activity (FLIPR Tetra)). Conditions: CHO-Gα16 cells stably expressing FPRL1; calcium activity on FLIPR Tetra; tested at 0.61 to 10,000 nM; read-out: FPRL-1 Ga16-CHO EC50.
T1 construct: expressed in transfected cells; host or cells: CHO-Gα16 cells stably expressing FPRL1
T1 sequence (P25090 1-351): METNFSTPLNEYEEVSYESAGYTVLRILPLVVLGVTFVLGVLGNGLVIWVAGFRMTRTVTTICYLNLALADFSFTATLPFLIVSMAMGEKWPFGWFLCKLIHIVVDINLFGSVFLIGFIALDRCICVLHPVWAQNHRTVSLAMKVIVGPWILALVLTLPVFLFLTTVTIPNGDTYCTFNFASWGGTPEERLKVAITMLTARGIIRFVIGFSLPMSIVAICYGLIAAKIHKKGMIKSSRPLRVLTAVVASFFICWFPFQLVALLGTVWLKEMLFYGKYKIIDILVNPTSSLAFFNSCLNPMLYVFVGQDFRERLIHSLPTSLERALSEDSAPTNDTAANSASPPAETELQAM
Type: cell-based
Description: HEK-Gα16 and CHO-Gα16 cells stably expressing FPRL1 were cultured in (F12, 10% FBS, 1% PSA, 400 μg/ml geneticin and 50 μg/ml hygromycin) and HEK-Gqi5 cells stable expressing FPR1 were cultured in (DMEM high glucose, 10% FBS, 1% PSA, 400 μg/ml geneticin and 50 μg/ml hygromycin). In general, the day before the experiment, 18,000 cells/well were plated in a 384-well clear bottom poly-d-lysine coated plate. The following day the screening compound-induced calcium activity was assayed on the FLIPR^Tetra. The drug plates were prepared in 384-well microplates using the EP3 and the MultiPROBE robotic liquid handling systems. Compounds were tested at concentrations ranging from 0.61 to 10,000 nM. Results are expressed as EC50 (nM) and efficacy values.

Structure (SMILES)	EC50
CC(C)C1(CC(=O)NCC(=O)O)NC(=O)N(NC(=O)Nc2ccc(Br)cc2)C1=O (stereo not drawn) [Compound 92, 2-(2-(1-(3-(4-Bromophenyl)ureido)-4-isopropyl-2,5-dioxoimidazolidin-4-yl)acetamido)acetic acid]	133 nM
CC1(CCc2cccc(O)c2)NC(=O)N(NC(=O)Nc2ccc(Br)cc2)C1=O (stereo not drawn) [Compound 52, 1-(4-Bromophenyl)-3-(4-(3-hydroxyphenethyl)-4-methyl-2,5-dioxoimidazolidin-1-yl)urea]	1.5 nM and 2.07 nM
COc1ccc(COCCC2(C(C)C)NC(=O)N(NC(=O)Nc3ccc(Br)cc3)C2=O)cc1 (stereo not drawn) [Compound 49, 1-(4-Bromophenyl)-3-(4-isopropyl-4-(2-((4-methoxybenzyl)oxy)ethyl)-2,5-dioxoimidazolidin-1-yl)urea]	232 nM
CC(C)C1(CC(=O)NC(C)(C)C(=O)O)NC(=O)N(NC(=O)Nc2ccc(Br)cc2)C1=O (stereo not drawn) [Compound 95, 2-(2-(1-(3-(4-Bromophenyl)ureido)-4-isopropyl-2,5-dioxoimidazolidin-4-yl)acetamido)-2-methylpropanoic acid]	109 nM
CC1(CCc2ccccc2F)NC(=O)N(NC(=O)Nc2ccc(Br)cc2F)C1=O (stereo not drawn) [Compound 38, 1-(4-Bromo-2-fluorophenyl)-3-(4-(2-fluorophenethyl)-4-methyl-2,5-dioxoimidazolidin-1-yl)urea]	56.2 nM
CC1(CCc2ccccc2)NC(=O)N(NC(=O)Nc2ccc(Br)cc2F)C1=O (stereo not drawn) [Compound 17, 1-(4-Bromo-2-fluorophenyl)-3-(4-methyl-2,5-dioxo-4-phenethylimidazolidin-1-yl)urea]	61 nM
CCc1ccc(NC(=O)NN2C(=O)NC(CC)(CC)C2=O)cc1 [Compound 4, 1-(4-Ethylphenyl)-3-(4,4-diethyl-2,5-dioxoimidazolidin-1-yl)urea]	125 nM
CCC1(CC)NC(=O)N(NC(=O)Nc2ccc(SC)cc2)C1=O [Compound 8, 1-(4-Methylthiophenyl)-3-(4,4-diethyl-2,5-dioxoimidazolidin-1-yl)urea]	37.1 nM
CC(C)C1(CO)NC(=O)N(NC(=O)Nc2ccc(Br)cc2F)C1=O (stereo not drawn) [Compound 76, 1-(4-Bromo-2-fluorophenyl)-3-(4-(2-hydroxymethyl)-4-isopropyl-2,5-dioxoimidazolidin-1-yl)urea]	50 nM
CC(C)C1(CC(=O)NCC(N)=O)NC(=O)N(NC(=O)Nc2ccc(Br)cc2)C1=O (stereo not drawn) [Compound 96, N-(2-Amino-2-oxoethyl)-2-(1-(3-(4-bromophenyl)ureido)-4-isopropyl-2,5-dioxoimidazolidin-4-yl)acetamide]	51.3 nM
CC(C)C1(CC(=O)NCC(=O)OC(C)(C)C)NC(=O)N(NC(=O)Nc2ccc(Br)cc2)C1=O (stereo not drawn) [Compound 85, tert-Butyl 2-(2-(1-(3-(4-bromophenyl)ureido)-4-isopropyl-2,5-dioxoimidazolidin-4-yl)acetamido)acetate]	302 nM
O=C(Nc1ccc(Br)cc1)NN1C(=O)NC2(Cc3ccccc3C2)C1=O [Compound 13, 1-(4-Bromophenyl)-3-(2,5-dioxo-1′,3′-dihydrospiro[imidazolidine-4,2′-inden]-1-yl)urea]	47 nM
CC1(CCc2ccc(Cl)cc2)NC(=O)N(NC(=O)Nc2ccc(Br)cc2)C1=O (stereo not drawn) [Compound 33, 1-(4-Bromophenyl)-3-(4-(4-chlorophenethyl)-4-methyl-2,5-dioxoimidazolidin-1-yl)urea]	333 nM
CC(C)C1(CC(=O)NCCC(=O)OC(C)(C)C)NC(=O)N(NC(=O)Nc2ccc(Br)cc2)C1=O (stereo not drawn) [Compound 91, tert-Butyl 3-(2-(1-(3-(4-bromophenyl)ureido)-4-isopropyl-2,5-dioxoimidazolidin-4-yl)acetamido)propanoate]	79.1 nM
CC1(C)NC(=O)N(NC(=O)Nc2ccc(Br)cc2)C1=O [Compound 12, 1-(4-Bromophenyl)-3-(4,4-dimethyl-2,5-dioxoimidazolidin-1-yl)urea]	74.9 nM
CCc1ccc2[nH]c(C3(C)NC(=O)N(NC(=O)Nc4ccc(Br)cc4F)C3=O)cc2c1 (stereo not drawn) [Compound 65, 1-(4-Bromo-2-fluorophenyl)-3-[4-(5-ethyl-1H-indol-2-yl)-4-methyl-2,5-dioxoimidazolidin-1-yl]urea]	169 nM
CC(C)OP(=O)(CNC(=O)CC1(C(C)C)NC(=O)N(NC(=O)Nc2ccc(Br)cc2)C1=O)OC(C)C (stereo not drawn) [Compound 88, Diisopropyl((2-(1-(3-(4-bromophenyl)ureido)-4-isopropyl-2,5-dioxoimidazolidin-4-yl)acetamido)methyl)phosphonate]	193 nM
O=C(Nc1ccc(Br)cc1F)NN1C(=O)NC2(CCc3ccccc3C2)C1=O (stereo not drawn) [Compound 26]	191 nM

The next lines start with the values.

EC50	Structure (SMILES)
14.9 nM	CCC1(CCc2ccccc2C(=O)OC)NC(=O)N(NC(=O)Nc2ccc(Br)cc2F)C1=O (stereo not drawn) [Compound 61, Methyl 2-(2-(1-(3-(4-bromo-2-fluorophenyl)ureido)-4-ethyl-2,5-dioxoimidazolidin-4-yl)ethyl)benzoate]
0.97 nM	CC1(CCc2ccccc2O)NC(=O)N(NC(=O)Nc2ccc(Br)cc2)C1=O (stereo not drawn) [Compound 50, 1-(4-Bromophenyl)-3-(4-(2-hydroxyphenethyl)-4-methyl-2,5-dioxoimidazolidin-1-yl)urea]
14.3 nM	O=C(Nc1ccc(Br)cc1)NN1C(=O)NC(C2CC2)(C2CC2)C1=O [Compound 66, 1-(4-Bromophenyl)-3-(4,4-dicyclopropyl-2,5-dioxoimidazolidin-1-yl)urea]
11.1 nM	CCC1(CCc2ccccc2C(=O)O)NC(=O)N(NC(=O)Nc2ccc(Br)cc2F)C1=O (stereo not drawn) [Compound 80, 2-[2-(1-{[(4-Bromo-2-fluorophenyl)carbamoyl]amino}-4-ethyl-2,5-dioxoimidazolidin-4-yl)ethyl]benzoic acid]
0.5 nM	CCC1(CCc2ccccc2)NC(=O)N(NC(=O)Nc2ccc(Br)cc2)C1=O (stereo not drawn) [Compound 30, 1-(4-Bromophenyl)-3-(4-ethyl-2,5-dioxo-4-(phenethyl)imidazolidin-1-yl)urea]
13.3 nM	CC1(CCc2ccc(O)cc2)NC(=O)N(NC(=O)Nc2ccc(Br)cc2)C1=O (stereo not drawn) [Compound 42, 1-(4-Bromophenyl)-3-(4-(4-hydroxyphenethyl)-4-methyl-2,5-dioxoimidazolidin-1-yl)urea]
< 2 nM	CC(C)C1(C(C)C)NC(=O)N(NC(=O)Nc2ccc(Br)cc2)C1=O [Compound 67, 1-(4-Bromophenyl)-3-[2,5-dioxo-4,4-di(propan-2-yl)imidazolidin-1-yl]urea]
9.1 nM	CCC1(CC)NC(=O)N(NC(=O)Nc2ccc(Br)cc2)C1=O [Compound 1, 1-(4-Bromophenyl)-3-(4,4-diethyl-2,5-dioxoimidazolidin-1-yl)urea]
17 nM	CC1(CCc2ccc(F)cc2)NC(=O)N(NC(=O)Nc2ccc(Br)cc2)C1=O (stereo not drawn) [Compound 39, 1-(4-Bromophenyl)-3-(4-(4-fluorophenethyl)-4-methyl-2,5-dioxoimidazolidin-1-yl)urea]
8.7 nM	CC1(CCc2ccc(O)cc2)NC(=O)N(NC(=O)Nc2ccc(Br)cc2F)C1=O (stereo not drawn) [Compound 45, 1-(4-Bromo-2-fluorophenyl)-3-(4-(4-hydroxyphenethyl)-4-methyl-2,5-dioxoimidazolidin-1-yl)urea]
7.9 nM	CC1(CCc2cccs2)NC(=O)N(NC(=O)Nc2ccc(Br)cc2)C1=O (stereo not drawn) [Compound 43]
30.2 nM	CC1(CCc2ccncc2)NC(=O)N(NC(=O)Nc2ccc(Br)cc2)C1=O (stereo not drawn) [Compound 54, 1-(4-Bromophenyl)-3-(4-methyl-2,5-dioxo-4-(2-(pyridin-4-yl)ethyl)imidazolidin-1-yl)urea]
